The nature of the test: Circulating thyroid hormone labs (FT3, FT4, rT3, TSH) in weight loss program patients on thyroid hormone treatment. It is filed as in vivo, human. The text has this:
FIG. 1 depicts hormonal responses to a hypocaloric state with subsequent treatment. Note: Time frames and shapes of response curves are approximated. Levels of all four hormones are normal before the diet (Time A). At time between time points B and D, TSH is dropping slightly to signal the thyroid gland to make less thyroid hormone. This drop is the mechanism to decrease metabolism in the hypocaloric state. At point C, free T3 begins to drop as rT3 increases. Also at time point C, different observations have been reported for changes in FT4: in our experience, FT4 also drops as indicated on the graph. In the literature, some report no change, whereas others report an increase in FT4. By the time of the blood sampling (time E), in our experience, patients whose FT3 and FT4 have dropped to the low end of normal (with possible above normal rT3 levels) are those experiencing symptoms of low thyroid. They may have any of the following symptoms: feeling cold, cold hands and feet, elevated diastolic blood pressure secondary to vasoconstriction, fatigue, depression, constipation, hair loss, dry skin, insomnia, as well as others. They have often hit a plateau of weight loss even though they have continued to maintain their hypocaloric diet and exercise program. At point F, we begin treatment with thyroid hormone (for example, T4 with T3, T3 alone, T3 with T2 and T4, or T2 alone. Between points F and G, FT3 and rT3 (and FT4 if T4 was administered) are returning to more normal levels, while TSH plummets, often to undetectable levels. At time point H, symptoms of low thyroid are resolved, the patient has no symptoms of hyperthyroidism, and if rT3 had risen and was treated appropriately, rT3 decreased.
The first patient example is a person, 5′2″, weight 268 lbs, body mass index (BMI) 49 (nl 19-24; overweight 25-29; obesity≧30). Baseline blood pressure was 110/74, blood sugar (BS) was 153 mg/dL 10 days after their first visit. Their medical problems at baseline included obesity, type 2 diabetes mellitus (DM2), high blood pressure (HTN), fatigue, depression, and asthma. Their medications included glipizide 10 mg daily, amitriptyline 50 mg daily, metoprolol 50 mg daily, furosemide 40 mg daily, potassium chloride, lisinopril 10 mg daily, Advair Discus 500/50 twice daily (bid), and montelukast 10 mg daily. They were started on our comprehensive program. Five months after starting their weight loss treatment, they developed symptoms of hypothyroidism with constipation and fatigue. They had lost 28 lbs by this time and was having difficulty losing more weight even though they were eating less than they were before their weight loss treatment began. At the start of treatment, their FT4 was 0.9 ng/dL (nl 0.7-1.48). At the time of their low thyroid symptoms, their FT3 was 2.9 pg/mL (nl 1.71-3.71) and their FT4 was 0.91 ng/dL (nl 0.7-1.48). They were then treated with thyroid hormone (desiccated thyroid with a ratio of T4:T3 of about 4:1) at 60 mg daily for 6 days to acclimate, then increased to 120 mg daily. […] After two years on their weight loss treatment, their weight was 231 lbs. […] We tested for rT3 at this point. Their labs on the 150 mg dose of desiccated thyroid were: rT3 394 pg/mL (nl 90-350), FT3 3.94 pg/mL (nl 1.71-3.71), and FT4 1.24 ng/dL (nl 0.7-1.48). The task of bringing down their rT3 was then addressed. Over a period of a few months, their desiccated thyroid hormone was discontinued and instead the patient was given gradually increasing doses of T3 only, starting at 20 mcg daily and gradually increasing the T3 to 60 mcg bid. Five months after starting on T3 with increasing doses, their weight had dropped to 209 lbs. Their BP was 118/66 mmHg with pulse of 74 on lisinopril 10 mg daily, metoprolol 50 mg bid, and furosemide 40 mg daily. Instead of glipizide, they were taking metformin 500 mg bid. […] Their most recent labs on 60 mcg bid of T3 were FT3 3.8 pg/mL (nl 1.71-3.71), FT4 0.64 ng/dL (nl 0.7-1.48) and rT3 137 pg/mL (nl 90-350). Four months prior to this visit their BS was 125 mg/dl. […]

Regarding `N[C@@H](Cc1cc(I)c(Oc2ccc(O)c(I)c2)c(I)c1)C(=O)O` [T3, (2S)-2-amino-3-[4-(4-hydroxy-3-iodo-phenoxy)-3,5-diiodo-phenyl]propanoic acid], the FT4 by setting is: (Patient Example 1, on 60 mcg bid, nl 0.7-1.48) 0.64 ng/dL; (Patient Example 2, T3 only, 25 mcg bid, nl 0.93-1.70) 0.67 ng/dL; (Patient Example 4, T3 50 mcg 2 PO q am and 1 PO 8-10 hours later, normal range 0.93-1.7) “less than 0.1 ng/dL”. Besides, the FT3 (Patient Example 1, on 60 mcg bid, nl 1.71-3.71) was 3.8 pg/mL; the FT3 (Patient Example 2, T3 only, 25 mcg bid, nl 2.2-4.0) was 2.5 pg/mL; the FT3 (Patient Example 4, T3 50 mcg 2 PO q am and 1 PO 8-10 hours later, normal range 2.2-4.0) turned out to be 7.0 pg/mL. Also, the rT3 (Patient Example 1, on 60 mcg bid, nl 90-350) was found to be 137 pg/mL; the rT3 (Patient Example 2, T3 only, 25 mcg bid, nl 90-350) amounted to 193 pg/mL; the rT3 entry (Patient Example 4, T3 50 mcg 2 PO q am and 1 PO 8-10 hours later, normal range 90-350) was “less than 15 pg/mL”.

The record behind these values is patent publication US20150320709A1, “METHODS AND COMPOSITIONS FOR FACILITATING WEIGHT LOSS BY ADMINISTRATION OF THYROID HORMONES” (priority 2011, published 2015).
